Where no end group is shown, it is not given here.
Key:
MG63 cells [1] = assay: p53 protein expression level, immunofluorescence staining quantified with ImageJ, osteosarcoma cells; assay type: cell-based, human; parameters: P53: unit not given here; conditions: for P53: Table 9, in association with SiRNA Integrin alpha 3+SiRNA Integrin beta 1 (SEQ ID NO: 141 to 163); for p53 (%): Table 4, cyclic GFR-binding peptide in association with SiRNA Integrin alpha 3 and SiRNA Integrin beta 1, 400 ng/mL, 24 hours
Description: (§1) The following starting materials and reagents were used: • Type-I collagen sponge was obtained from Sigma®. • PBS 1× was obtained from Gibco®. • MilliQ water: is water characterised in terms of resistivity (typically 18.2 MΩ·cm at 25° C.). • Low glucose Dulbecco's Modified Eagle Medium (DMEM) was obtained from Invitrogen® • Minimum Essential Medium Eagle without ascorbic acid (αMEM) was obtained from Invitrogen®. • All of the cell culture experiments were carried out without any serum in the medium for the first 8 hours of culture. • Osteosarcoma cells: MG63 cells were obtained from ATCC®. These cells were cultured in DMEM (Eagle's Minimum Essential Medium) medium supplemented with 10% fetal calf serum (FCS) and 1% penicillin/streptomycin. All cells were used at a low passage number (passage 10), were subconfluently cultured and were seeded at 10^4 cells/cm^2 for the purpose of the experiments. • Chondrosarcoma cells Hs819.T cells were obtained from ATCC®. These cells were cultured in DMEM (Eagle's Minimum Essential Medium) medium supplemented with 10% fetal calf serum (FCS) and 1% penicillin/streptomycin. All cells were used at a low passage number (passage 10), were subconfluently cultured and were seeded at 10^4 cells/cm^2 for the purpose of the experiments. • Rhabdomyosarcoma cells: A-673 cells were obtained from ATCC®. These cells were cultured in DMEM (Eagle's Minimum Essential Medium) medium supplemented with 10% fetal calf serum (FCS) and 1% penicillin/streptomycin. All cells were used at a low passage number (passage 10), were subconfluently cultured and were seeded at 10^4 cells/cm^2 for the purpose of the experiments. • Adenocarcinoma cells: HCC4006 cells were obtained from ATCC®. These cells were cultured in RPMI-1640 medium (obtained from ATCC®) supplemented with 10% fetal calf serum (FCS) and 1% penicillin/streptomycin. All cells were used at a low passage number (passage 10), were subconfluently cultured and were seeded at 10^4 cells/cm^2 for the purpose of the experiments. • CMFDA is a Cell Tracker Green obtained from Invitrogen®. • DAPI was obtained from Sigma®. • Fetal bovine serum (FBS) was obtained from Gibco®. • Penicillin/streptomycin was obtained from Invitrogen®. • The AlamarBlue® assay was obtained from Molecular Probes®. • Anti phospho-p53 antibody was obtained from Santa Cruz Biotechnology®, • Anti pRB antibody was obtained from Santa Cruz Biotechnology®, • Monoclonal anti-integrin (extracellular domain) αv, α5, α3, α4, β1, β3, β5 and β9 antibodies were obtained from Santa Cruz Biotechnology®, • Cell cytoskeletal filamentous actin (F-actin) was visualized by Alexa Fluor® 488 phalloidin Sigma® labeling. • Monoclonal anti-vinculin antibody (clone hVIN-1, produced in mouse) was obtained from Sigma®.
(§2) • All of the peptides were synthetized using conventional solution and/or solid phase peptide synthesis methods. • All of the experiments were performed with a concentration of 400 ng/mL of GFR-binding compound(s) as defined herein. • All cell culture experiments were performed with cultures on plastic coated with type-I collagen in order to mimic the physiological conditions of the human body. • The compositions of pharmaceutical compositions used in the examples below are summarized in the following table:
(§3) The cells were first fixed for 20 min with 4% paraformaldehyde/PBS at 4° C. After fixation, the cells were permeabilized in PBS containing 1% Triton X-100 for 15 min. Protein immunofluorescent visualization was performed by first treating the cells with 1% (v/v) specific monoclonal antibodies for 1 hour at 37° C. Then the samples were incubated with Alexa Fluor® 568 or 647 (F(ab′)2 fragment of IgG(H+L)) during 30 min at room temperature. The cell nuclei were counterstained in 20 ng/mL DAPI for 10 min at room temperature.
(§4) For this type of quantification the freeware image analysis ImageJ® software was used. […]

MG63 cells [2] = assay: pRB phosphorylation level, immunofluorescence staining quantified with ImageJ, osteosarcoma cells; assay type: cell-based, human; conditions: MG63 cells; for pRB: Table 9, in association with SiRNA Integrin alpha 3+SiRNA Integrin beta 1 (SEQ ID NO: 141 to 163); for pRB (%): Table 4, cyclic GFR-binding peptide in association with SiRNA Integrin alpha 3 and SiRNA Integrin beta 1, 400 ng/mL, 24 hours
Description: as §1, §2, §3, §4

growth factor receptors = assay: cell-based or functional assay

CKIPKASSVPTELNAISVLYFDENEKVILKKYRDMVVEGSG (Non-cyclic GFR-binding peptide) [SEQ ID NO: 144]
P53 (MG63 cells [1]): 40
pRB (MG63 cells [2]): 7

APTGGSATSMLYYDKGVVTYLRKHRGGVVKDKGVVTY (also: cyclic, ring not given here) [SEQ ID NO: 38204]
p53 (%) (MG63 cells [1]): 37%
pRB (%) (MG63 cells [2]): 11%

VPTGGEPLTTLYYNDKQQIIEQLSNGGEHSDDMGVPT (also: cyclic peptide) [SEQ ID NO: 38215]
p53 (%) (MG63 cells [1]): 39%
pRB (%) (MG63 cells [2]): 16%

APTLLNAISMLYFNDKQQIILKKYRLLVVRNDKQQII (also: cyclic, ring not given here) [SEQ ID NO: 38203]
p53 (%) (MG63 cells [1]): 44%
pRB (%) (MG63 cells [2]): 12%

CKVGKASSVPTKLNAISTLYLDDSSNVILKNYQ (Non-cyclic GFR-binding peptide) [SEQ ID NO: 160]
P53 (MG63 cells [1]): 38
pRB (MG63 cells [2]): 8

VPTMMSNITTQIMRIKPHQGQHIGEMSMMQHNDEYDKVV (also: cyclic peptide) [SEQ ID NO: 38212]
p53 (%) (MG63 cells [1]): 51%
pRB (%) (MG63 cells [2]): 14%

APVAAKPLSMLYVDKGVVTYDHHKDAAVEEDEYDKVV (also: cyclic, ring not given here) [SEQ ID NO: 38209]
p53 (%) (MG63 cells [1]): 38%
pRB (%) (MG63 cells [2]): 11%

CAVPKASSAPTKLSATSVLYYDSSNNVVLRKHRNMVVK (Non-cyclic GFR-binding peptide) [SEQ ID NO: 146]
P53 (MG63 cells [1]): 38
pRB (MG63 cells [2]): 11

CKVGKASSVPTKLNAISTLYLDENEKVVLKKYREGMS (Non-cyclic GFR-binding peptide) [SEQ ID NO: 158]
P53 (MG63 cells [1]): 39
pRB (MG63 cells [2]): 9

VPTVVSPISMLYIDDMGVPTYKQYEVVVVEDDMGVPT (also: cyclic peptide) [SEQ ID NO: 38208]
p53 (%) (MG63 cells [1]): 39%
pRB (%) (MG63 cells [2]): 9%

CAPTQLSPISVLYKDDSSNVILKYHYTLEDH (Non-cyclic GFR-binding peptide) [SEQ ID NO: 148]
P53 (MG63 cells [1]): 42
pRB (MG63 cells [2]): 9

CRNVQCRPTQVQLSAISTLYLEIVRKKPLKNYQTLEDH (Non-cyclic GFR-binding peptide) [SEQ ID NO: 149]
P53 (MG63 cells [1]): 35
pRB (MG63 cells [2]): 12

CASAAPSSVPQKLNAISMLYFVGRKPKVLKKYRMIVRS (Non-cyclic GFR-binding peptide) [SEQ ID NO: 157]
P53 (MG63 cells [1]): 34
pRB (MG63 cells [2]): 11

CKASSVPTELSPISTLYKDENEKVVLKYHYDMVVEGSGSR (Non-cyclic GFR-binding peptide) [SEQ ID NO: 156]
P53 (MG63 cells [1]): 45
pRB (MG63 cells [2]): 8

CPKPSSAPTQLSAISTLYLDDSSNVILKNYQMIVVRA (Non-cyclic GFR-binding peptide) [SEQ ID NO: 159]
P53 (MG63 cells [1]): 44
pRB (MG63 cells [2]): 9

VPEAASSLSMLFFEIVRKKPIFLKVYPAATVEDKGVVTY (not fully specified; also: cyclic peptide) [SEQ ID NO: 38201]
p53 (%) (MG63 cells [1]): 40%
pRB (%) (MG63 cells [2]): 19%

CASASPSSVSQDLNAISVLYFIGKTPKILKKYRMIVKSSKSS (Non-cyclic GFR-binding peptide) [SEQ ID NO: 145]
P53 (MG63 cells [1]): 38
pRB (MG63 cells [2]): 6

GTPGPKVPKPSSAPTQLSAISTLYLDEYDKVVLKNYQNMAVR (Non-cyclic GFR-binding peptide) [SEQ ID NO: 163]
P53 (MG63 cells [1]): 41
pRB (MG63 cells [2]): 7

CAPTKLSAISMLYLDSSNNVILKNYQ (Non-cyclic GFR-binding peptide) [SEQ ID NO: 154]
P53 (MG63 cells [1]): 40
pRB (MG63 cells [2]): 14

CPSSAPTQLSATSVLYYDDSSNVILRKHRQHNK (Non-cyclic GFR-binding peptide) [SEQ ID NO: 150]
P53 (MG63 cells [1]): 41
pRB (MG63 cells [2]): 11

CKVPKASSVPTELSAISTLYLAAAALKNYQEM (Non-cyclic GFR-binding peptide) [SEQ ID NO: 152]
P53 (MG63 cells [1]): 37
pRB (MG63 cells [2]): 8

TPTSSSPINTLYFDDMGVPTYGKIPSSVVDDEYDKVV (not fully specified; also: cyclic peptide) [SEQ ID NO: 38207]
p53 (%) (MG63 cells [1]): 41%
pRB (%) (MG63 cells [2]): 13%

NDEGLECVPTEERPVQVRKIRIKPHQGQKKATVFLQHNK (not fully specified) [GFR-binding compound SEQ ID NO: 54]
p-Smad1/5/8 (%) (growth factor receptors): 41%

NDEGLECVPTEERPVQVRKIRIKPHQGQKKATVFLQHNK (not fully specified) [GFR-binding compound SEQ ID NO: 59]
p-Smad1/5/8 (%) (growth factor receptors): 34%

VPTHHSAISTLYLELAGEKPLKNYQFLQHNK [GFR-binding compound SEQ ID NO: 57]
p-Smad1/5/8 (%) (growth factor receptors): 38%

RNVQCRPTQLEPLPIVYYEIVRKKPEQLSNTLEDHLA (not fully specified) [GFR-binding compound SEQ ID NO: 56]
p-Smad1/5/8 (%) (growth factor receptors): 47%

RNVQCRPTQLEPLPIVYYEIVRKKPEQLSNTLEDHLA (not fully specified) [GFR-binding compound SEQ ID NO: 61]
p-Smad1/5/8 (%) (growth factor receptors): 44%

VSQDLSAISTLYLKIVRKEPLKNYQEMVEE [GFR-binding compound SEQ ID NO: 58]
p-Smad1/5/8 (%) (growth factor receptors): 49%

ASASPSSVPQDLEPLTILYYVGRTPKVEQLSNMV [GFR-binding compound SEQ ID NO: 55]
p-Smad1/5/8 (%) (growth factor receptors): 32%
